What all share (format): in vivo, Male ICR mice
Data set [1] concerns mice. Put plainly: locomotor activity (ultromotivity) test, evaluation of sedative action. On the procedure:
(§1) In the following Examples, all extracts and drugs used were dissolved in physiological saline before use for i.p. administration and the dose was 0.1 ml of physiological saline per 10 g of mouse body weight in either case. All extracts and drugs were suspended in physiological saline containing 1% sodium carboxymethylcellulose before use for oral administration and the dose was 0.1 ml of 1% sodium carboxymethylcellulose-containing physiological saline suspension per 10 g of mouse body weight in either case. Male ICR mice (Japan SLC) having a body weight of 25 to 30 g were used in the tests below unless otherwise stated, and were fed in advance at a room temperature of 23±1° C. and a relative humidity of 55±5% in the environment of a cycle of 12-hour-light from 7 a.m. to 7 p.m. and 12-hour-dark from 7 p.m. to 7 a.m. for 3 to 5 days. The mice were allowed to have water and feed freely.
Twenty five mice were grouped into five groups each having five mice, to which 5 mg/kg of N-methylcoclaurine hydrochloride (treatment group 1-1: i.p. administration), 50 mg/kg of neferine hydrochloride (treatment group 1-2: oral administration, and treatment group 1-3: i.p. administration), 50 mg/kg of liensinine hydrochloride (treatment group 1-4: oral administration), or physiological saline (negative control group 1-1: i.p. administration) was administered. The ultromotivity of the mice was analyzed by using a locomotor activity monitoring system (NS-AS01, Neuroscience Inc.). The ultromotivity measurements were performed at an interval of 5 minutes for 60 minutes, and the ultromotivity was judged from the count at each measuring time.
Similar tests were conducted by i.p. administration of 25 mg/kg of N-norarmepavine (treatment group 1-5, n=6), 25 mg/kg of O,O-dimethylcoclaurine (treatment group 1-6, n=5), 10 mg and 25 mg/kg of armepavine (respectively, treatment group 1-7, n=6, and treatment group 1-8, n=6), 10 mg and 25 mg/kg of O-methylarmepavine (respectively, treatment group 1-9, n=6, and treatment group 1-10, n=6), and physiological saline (negative control group 1-2, n=5). The ultromotivity measurements were performed at an interval of five minutes for 60 minutes, and the ultromotivity was subjected to a significant difference test (Tukey's method) by using the counts at respective measuring times.
Tests were performed by using mice administered intraperitoneally with 25 mg/kg of neferine hydrochloride (treatment group 7-1, n=6), 25 mg/kg of liensinine hydrochloride (treatment group 7-2, n=6), and physiological saline (negative control group, n=6) as well as 5 mg/kg of diazepam (positive control group, n=6) and a rotarod equipment (Ugo Basile, Italy) and a locomotor activity monitoring system (NS-AS01, Neuroscience Inc.). The rotarod test was performed by placing a mouse on a rod having a diameter of 4 cm rotating at a speed of 8 rpm 15 minutes after drug administration and observing whether the mouse can stay on the rod without falling for three minutes. The individuals that had fallen from the rotating rod in the period of 3 minutes were judged that they are with motor coordination disorder. […] In addition, the ultromotivity measurements were performed at an interval of five minutes for 60 minutes, and the ultromotivity results were subjected to a significant difference test (Tukey's method) by using the counts at respective measuring times.

For data set [2], the system named is mice. Kind of data set: acetic acid-induced writhing test. On the procedure: as §1
An acetic acid-induced writhing test is a method wherein analgesic action of a compound is determined utilizing this. The number of this writhing is compared between a physiological saline-administered control group and a test drug-administered group, and suppression of the number of writhing by the test drug is investigated thereby assessing its analgesic action.
Seven to ten mice per group were used. Neferine hydrochloride was subcutaneously administered to mice at their back at a dose of 5 mg/kg, 10 mg/kg, 25 mg/kg, 50 mg/kg or 100 mg/kg and, after 15 minutes, a 0.6% by weight solution of acetic acid in water was intraperitoneally administered at 0.1 mL/10 g body weight. The number of writhing was counted every ten minutes for 30 minutes from immediately after acetic acid administration (0 to 10 min, 10 to 20 min, 20 to 30 min). In addition, the total number of writhing for 30 minutes from immediately after acetic acid administration was also obtained. Regarding the resulting measurements, a significant difference test was performed by a Dunnet multiple comparison test method.
According to the same manner as in acetic acid-induced writhing test-1 except that acetic acid was intraperitoneally administered 30 minutes after subcutaneous administration of neferine in the aforementioned acetic acid-induced writhing test-1, an acetic acid-induced writhing test was performed. However, the dose of neferine was only 50 mg/kg.
According to the same manner as in the acetic acid-induced writhing test-1 except that acetic acid was intraperitoneally administered 30 minutes after oral administration of neferine in the aforementioned acetic acid-induced writhing test-1, an acetic acid-induced writhing test was performed. However, five to six mice per group were used. The dose of neferine was 10 mg/kg and 50 mg/kg. Further, aspirin was used as a positive control drug. The dose of aspirin was 50 mg/kg.
According to the same manner as in acetic acid-induced writhing test-1 except that armepavine was used in place of neferine in the aforementioned acetic acid-induced writhing test-1, an acetic acid-induced writhing test was performed. However, the dose of armepavine was 5 mg/kg and 10 mg/kg.
According to the same manner as in acetic acid-induced writhing test-1 except that O-methylarmepavine was used in place of neferine in the aforementioned acetic acid-induced writhing test-1, an acetic acid-induced writhing test was performed. However, the dose of O-methylarmepavine was 5 mg/kg and 10 mg/kg.

The subject of data set [3] is mice. Put plainly: rotarod test (motor coordination). The note with it: 5 mg/kg i.p., n=6, 15 minutes after administration, 8 rpm, three minutes. On the procedure: as §1
Tests were performed by using mice administered intraperitoneally with 25 mg/kg of neferine hydrochloride (treatment group 7-1, n=6), 25 mg/kg of liensinine hydrochloride (treatment group 7-2, n=6), and physiological saline (negative control group, n=6) as well as 5 mg/kg of diazepam (positive control group, n=6) and a rotarod equipment (Ugo Basile, Italy) and a locomotor activity monitoring system (NS-AS01, Neuroscience Inc.). […]

Data set [4] deals with mice. Put plainly: formalin pad test. The note with it: 10 mg/kg i.p. 15 minutes before formalin. On the procedure: as §1
A formalin pad test is a method in which, when formalin is subcutaneously administered to a pad of a mouse, the mouse causes licking, and analgesic action of a test drug is determined by utilizing this. Suppression of licking in a test drug-administered group was investigated relative to a physiological saline-administered control group, and analgestic action was evaluated.
Six mice per group were used. Neferine hydrochloride was intraperitoneally administered at a dose of 25 mg/kg, 50 mg/kg or 100 mg/kg and, after fifteen minutes, 20 μl of a 0.2% by weight formalin aqueous solution was subcutaneously administered to a right hind paw pad. After formalin administration, licking was regarded as a provisional pain reaction, and a licking sustaining time in a first phase from immediately after formalin administration to five minutes after formalin administration and in a second phase from 15 minutes to 30 minutes after formalin administration was measured. Regarding the resulting measurements, a significant difference test was performed by a Dunnet multiple comparison test method.
According to the same manner as in Example 13 except that 10 mg/kg of O-methylarmepavine was intraperitoneally administered in place of neferine, a formalin pad test was performed.

Data set [5] concerns mice. Kind of data set: histamine-induced paw edema test. The following applies: 10 mg/kg i.p. 15 minutes before histamine 10 μg; 12 minutes after histamine. On the procedure: as §1
Six mice per group were used. […] The thickness of the right hind paw was measured immediately before histamine administration and 12 minutes after histamine administration. The thickness immediately before administration was subtracted from the thickness of the paw after histamine administration, and this was adopted as a thickness of paw edema. As apparent from TABLE 18, paw edema due to histamine was suppressed by neferine. […]

Where [6] appears, read: 50 mg/kg oral 30 minutes before acetic acid.
[7] abbreviates: 5 mg/kg s.c. 15 minutes before acetic acid.
The mark [8] stands for this setting: 10 mg/kg s.c. 15 minutes before acetic acid.

The values that follow come from US20070027181A1, “Benzylisoquinoline derivative- or bisbenzylisoquinoline derivative-containing psychotropic agent, analgesic and/or antiphlogistic, and health food” (EDUCATION CENTER OF TRADITIONAL, priority 2004, published 2007).

For the molecule `COc1cc2c(cc1OC)[C@@H](Cc1ccc(O)c(Oc3cc4c(cc3OC)CCN(C)[C@@H]4Cc3ccc(O)cc3)c1)N(C)CC2` [liensinine], in the data set with mice [1] (50 mg/kg oral), the “Ultromotivity (count) 30 minutes” value was 600 count and the “Ultromotivity (count) 60 minutes” value was found to be 800 count.
In the case of `COc1cc2c(cc1O)[C@@H](Cc1ccc(O)cc1)N(C)CC2` [N-methylcoclaurine], the “sedative activity compared with neferine and liensinine” value in the data set with mice [1] (5 mg/kg i.p. versus 50 mg/kg of the bisbenzylisoquinolines) is “extremely higher activity”. In addition, in the data set on mice [1] (5 mg/kg i.p.), the “Ultromotivity (count) 30 minutes” value came out at 250 count and the “Ultromotivity (count) 60 minutes” value was found to be 250 count.
With `CC(=O)Oc1ccccc1C(=O)O` [aspirin, reference compound], in the data set on mice [2] (setting [6]), the “Number of writhing 0-10 min.” value was found to be 10.8 ± 3.41, the “Number of writhing 0-30 min.” value was 3.34 ± 5.35, the “Number of writhing 10-20 min.” value amounted to 15.2 ± 1.83 and the “Number of writhing 20-30 min.” value is 7.4 ± 1.23.
Take `CN1C(=O)CN=C(c2ccccc2)c2cc(Cl)ccc21` [diazepam]: in the data set on mice [3], the “Number of individuals fallen” value was 5.
For `COc1cc2c(cc1OC)C(Cc1ccc(O)cc1)N(C)CC2` (centres unmarked) [armepavine], in the data set on mice [2] (setting [7]), the “Number of writhing 0-10 min.” value is recorded as 19.0 ± 3.21, the “Number of writhing 0-30 min.” value stood at 41.7 ± 5.24, the “Number of writhing 10-20 min.” value turned out to be 14.7 ± 1.92 and the “Number of writhing 20-30 min.” value was 9.4 ± 1.81. Moreover, in the data set on mice [2] (setting [8]), the “Number of writhing 0-10 min.” value is recorded as 8.6 ± 1.41, the “Number of writhing 0-30 min.” value is 24.6 ± 4.23, the “Number of writhing 10-20 min.” value was 10.7 ± 2.24 and the “Number of writhing 20-30 min.” value is listed as 5.3 ± 1.39.
Turning to `COc1ccc(C[C@@H]2c3cc(OC)c(OC)cc3CCN2C)cc1` [O-methylarmepavine], the “Licking sustaining time (second) First phase” value in the data set on mice [4] (0 to 5 minutes) turned out to be 70.9 ± 11.24 s. Moreover, the “Licking sustaining time (second) Second phase” value in the data set with mice [4] (15 to 30 minutes) was 126.9 ± 18.4 s. For the same molecule, the “Thickness of paw edema (mm)” value with mice [5] was 0.37 ± 0.06 mm. For the same molecule, in the data set with mice [2] (setting [7]), the “Number of writhing 0-10 min.” value is 11.6 ± 1.41, the “Number of writhing 0-30 min.” value is 30.2 ± 1.90, the “Number of writhing 10-20 min.” value amounted to 11.2 ± 2.25 and the “Number of writhing 20-30 min.” value worked out at 7.4 ± 1.52. In the data set on mice [2] (setting [8]), the “Number of writhing 0-10 min.” value is recorded as 5.9 ± 1.73, the “Number of writhing 0-30 min.” value came out at 13.3 ± 1.69, the “Number of writhing 10-20 min.” value is reported as 4.3 ± 1.19 and the “Number of writhing 20-30 min.” value is 3.1 ± 0.58.
